Assays:
[1] = Enzymatic bioconversion in mouse serum; assay type: in vitro ADME; conditions: after 5 h incubation, 37 °C, mean ± SD, n = 3
Method: (§1) The rates of bioactivation of the prodrugs 1–8 in mouse and human liver S9 fractions, as well as in mouse primary astrocyte–microglia homogenate, were determined at +37 °C. The incubation mixtures were prepared by mixing liver S9 subcellular fraction or brain cell homogenate (final protein concentration 1.0 mg/mL) with isotonic Tris–HCl buffer (pH 7.4) and 10 mM prodrug stock solution in DMSO (the initial concentration of prodrugs was 100 μM and the DMSO concentration was […]). The mixture was incubated for 5 h, and the samples ([…]) were withdrawn at appropriate intervals. The enzymatic reaction was terminated by the addition of ice-cold acetonitrile ([…]), and the samples were centrifuged for 5 min at 12 000 rpm at room temperature and kept on ice until the supernatants were analyzed by the HPLC method described below. In blank reactions, the S9 fractions were replaced with the same volume of buffer. The pseudo-first-order half-lives (t1/2) for the rates of bioconversion of the prodrugs were calculated from the slope of the linear portion of the plotted logarithm of the remaining prodrug concentration versus time. The rates of bioactivation of prodrugs 1–8 in human plasma and mouse serum were determined at 37 °C as above by adding 10 mM stock solution of the prodrug to plasma/serum in a ratio of 1:10 and analyzed similarly to the samples from S9 fractions.
(§2) The amount of prodrug 1–8 was determined by the HPLC system, which consisted of an Agilent 1100 binary pump (Agilent Technologies Inc., Wilmington, DE), an 1100 micro vacuum degasser, an HP 1050 Autosampler, and an HP 1050 variable wavelength detector, operated at 230–240 nm. The chromatographic separations were achieved on an Agilent Zorbax SB-C18 analytical column (4.4 mm × 150 mm, 5 μm) (Agilent Technologies Inc., Wilmington, DE) by using isocratic elution of water containing 0.1% formic acid (pH ca. 3.0) and acetonitrile containing 0.1% formic acid with ratios of 50:50, 30:70, 40:60, 50:50, 50:50, 40:60, 40:60, and 30:70 (v/v), respectively, for prodrug 1–8. […] The lower limit of quantification for prodrugs 1–8 was 0.20 μM. These HPLC methods were also accurate, precise, and selective over the range of 0.5–20 μM.

[2] = Enzymatic bioconversion in human liver S9 fraction; assay type: in vitro ADME; conditions: after 5 h incubation, 100 μM prodrug, 37 °C, mean ± SD, n = 3
Method: as §1, §2

[3] = system: human U-87MG glioma cells; test: Concentration-dependent cellular uptake into human U-87MG glioma cells; assay type: cell-based; conditions: 5–400 μM, 30 min, 37 °C
Method: U-87MG (ATCC, HTB-14, unknown origin) was purchased from Lonza (Basel, Switzerland). The cells were cultured in standard conditions (37 °C, 5% CO2) using Dulbecco’s modified Eagle’s medium (DMEM) supplemented with L-glutamine (2.0 mM), heat-inactivated fetal bovine serum (FBS) (10%), penicillin (50 U/mL), and streptomycin (50 μg/mL). U-87MG cells (passages 8–25) were seeded at a density of 1 × 10^5 cells/well onto 24-well plates and used for the uptake experiments 1 day after seeding. All of the studies were carried out as three biological replicates from the same cell passage.
(§3) After removal of the culture medium, U-87MG human glioma cells and mouse primary astrocytes were carefully washed with prewarmed Hank’s balanced salt solution (HBSS) containing 125.0 mM NaCl (or choline chloride in Na^+ free conditions), 4.8 mM KCl, 1.2 mM MgSO4, 1.2 mM KH2PO4, 1.3 mM CaCl2, 5.6 mM glucose, and 25.0 mM 4-(2-hydroxyethyl)piperazine-1-ethanesulfonic acid (HEPES) with the pH adjusted to either 7.4 or pH 8.5 with 1 M NaOH (or KOH in sodium-free conditions). In the experiments at lower pH (4.5–6.5), 25.0 mM HEPES was replaced by 2-(N-morpholino) ethanesulfonic acid (MES), and the pH was adjusted to 4.5, 5.5, and 6.5 by 1.0 M NaOH. Preincubation was done with 500 μL of prewarmed HBSS at 37 °C for 10 min before adding the substrate for the uptake experiments. The functionality of OATP1C1 in human glioma U-87MG cells was studied with a known substrate (L-thyroxine, T4) and of oatp1a4, 1a5, and 1a6 in mouse primary astrocytes with [6,7-^3H(N)]-estrone-3-sulfate (ES) by incubating the uptake solution (250 μL in HBSS) consisting of 5–400 μM of the substrate at 37 °C for 30 min. After incubation, the uptake was stopped by adding 500 μL of ice-cold HBSS, and the cells were washed two times with ice-cold HBSS (2 × 500 μL). The cells were then lysed with 500 μL of 0.1 M NaOH (60 min), the lysate was neutralized, and the protein was precipitated with acidic acetonitrile (ACN with 4.8% formic acid). The supernatants were analyzed by the high-performance liquid chromatography (HPLC) methods described below (T4) or by using a liquid scintillation counter (MicroBeta2 counter, PerkinElmer, Waltham, MA) (ES). The concentrations of T4 and ES were calculated from the spiked standard curve and normalized with the protein concentrations. The protein concentrations on each plate were determined as a mean of three samples by Bio-Rad Protein Assay, based on the Bradford dye-binding method, using bovine serum albumin (BSA) as a standard protein and measuring the absorbance (595 nm) by a multiplate reader (EnVision, PerkinElmer, Inc., Waltham, MA). The OATP-mediated uptake was confirmed by changing the pH of the uptake buffer in the absence of sodium ions, and in the case of OATP1C1 in human U-87MG cells, the uptake of T4 (100 μM) was studied in the presence of competing OATP1C1-ligands, diclofenac and flufenamic acid (100 μM), and in the case of oatp1a4/1a5/1a6 in mouse primary astrocytes, the uptake of ES (100 μM) was studied in the presence of competing OATO1A2-ligand, naringin (100 μM).
Cellular uptake of prodrugs 1–8 was studied as described for L-thyroxine above by adding compounds at a concentration of 5–400 μM in prewarmed HBSS buffer (250 μL) on the cell layer and incubating at 37 °C for 30 min (uptake was linear with all compounds up to 30 min). Subsequently, the cells were washed three times with ice-cold HBSS and lysed with 500 μL of 0.1 M NaOH (60 min). The lysate was neutralized; the proteins were precipitated with acidic ACN (containing 4.8% formic acid), and the supernatants were analyzed by the (HPLC) methods described below. The concentrations of each prodrug normalized to protein concentration were calculated from the standard curve prepared by spiking known concentrations of compounds into ACN-precipitated cell lysate. […]

[4] = Enzymatic bioconversion in mouse liver S9 fraction; assay type: in vitro ADME; conditions: after 5 h incubation, 100 μM prodrug, 37 °C, mean ± SD, n = 3
Method: as §1, §2

[5] = Enzymatic bioconversion in mouse primary astrocyte–microglia homogenate; assay type: in vitro ADME; conditions: after 5 h incubation, 100 μM prodrug, 37 °C, mean ± SD, n = 3
Method: as §1, §2

[6] = Enzymatic bioconversion in human plasma; assay type: in vitro ADME; conditions: after 5 h incubation, 37 °C, mean ± SD, n = 3
Method: as §1, §2

mouse primary astrocytes = test: Concentration-dependent cellular uptake into mouse primary astrocytes; assay type: cell-based; conditions: 5–400 μM
Method: The mouse primary astrocytes were isolated from neonatal pups (P0-2) of wild-type mice (C57BL/6JOlaHsd) as previously described, in compliance with the European Commission Directive 2010/63/EU and approved by the Institutional Animal Care and Use Committee of the University of Eastern Finland (Animal Usage Plan numbers: EKS-006-2019).[37] Neonatal pups were decapitated, and their brains were collected in an ice-cold HBSS buffer. After tissue dissociation and washing, cells were plated on poly-L-lysine-coated flasks and cultured in DMEM supplemented with FBS, L-glutamine, and penicillin/streptomycin (50 μg/mL) for 24 h. Debris and dead cells were removed by DPBS rinsing. After 7 days, microglial cells were removed, and the remaining astrocytic monolayer was collected by trypsinization using 0.05% trypsin-ethylenediaminetetraacetic acid (EDTA) (Gibco), pelleted, and stored at −80 °C for subsequent analysis. For the cell uptake experiments, the astrocytes were seeded on 24-well plates with a density of 10^4 cells/well 3 days before the experiments.
as §3
Cellular uptake of prodrugs 1–8 was studied as described for L-thyroxine above by adding compounds at a concentration of 5–400 μM in prewarmed HBSS buffer (250 μL) on the cell layer and incubating at 37 °C for 30 min (uptake was linear with all compounds up to 30 min). Subsequently, the cells were washed three times with ice-cold HBSS and lysed with 500 μL of 0.1 M NaOH (60 min). […]

Enzymatic stability, remaining percentage, mouse serum [1] [%]	Enzymatic stability, remaining percentage, human liver S9 [2] [%]	Enzymatic stability, remaining percentage, mouse liver S9 [4] [%]	Enzymatic stability, remaining percentage, mouse brain cell homogenate [5] [%]	Enzymatic stability, remaining percentage, human plasma [6] [%]	Km (mouse primary astrocytes; 30 min, 37 °C) [µM]	SMILES	Km [3] [µM]	Km ([3]; listed as PD1) [µM]	Vmax, ES uptake into mouse primary astrocytes (mouse primary astrocytes; Figure 2B) [pmol/min/mg]	Vmax, cellular uptake, astrocytes (mouse primary astrocytes; 30 min, 37 °C) [nmol/min/mg]	Vmax, cellular uptake, U-87MG [3] [nmol/min/mg]
94.32 ± 1.27	78.13 ± 2.17	74.30 ± 7.50	85.76 ± 2.74	92.01 ± 5.02	–	CC(C(=O)Oc1c(I)cc(C[C@H](N)C(=O)O)cc1I)c1cccc(C(=O)c2ccccc2)c1 (mixture of isomers) [Prodrug 1, (2S)-2-Amino-3-(4-((2-(3-benzoylphenyl)propanoyl)oxy)-3,5-diiodophenyl)propanoic acid]	174	~174	–	–	–
–	–	–	–	–	703 ± 227	C[C@]12CC[C@@H]3c4ccc(OS(=O)(=O)O)cc4CC[C@H]3[C@@H]1CCC2=O [ES, [6,7-^3H(N)]-estrone-3-sulfate, reference compound]	–	–	0.22 ± 0.05	–	–
–	–	–	–	–	1250 ± 230	N[C@@H](Cc1cc(I)c(Oc2cc(I)c(O)c(I)c2)c(I)c1)C(=O)O [L-Thyroxine T4, L-thyroxine]	111 ± 32	–	–	9.7 ± 6.1	8.86 ± 1.33
